Assay results published in US6773912B1, “Lantibiotic” (University of Otago, priority 1999, dated 2004).

How the values were obtained:
Type in all cases: cell-based
[1] = tested on: Streptococcus pyogenes strain FF22; experiment: Decrease in colony-forming units after mixing cells with salivaricin preparation; details: partially purified preparation of titre 16; 4 h at 37° C.; exponential Todd Hewitt broth culture cells
Description: The inhibitory activity of the salivaricins was determined by measurement of the decrease with time in the number of colony-forming units (CFU) of a suspension of the sensitive indicator streptococcus (Streptococcus pyogenes strain FF22) after mixing the cells with a salivaricin preparation. Twice-washed cells from an exponential Todd Hewitt broth culture of the indicator streptococcus were resuspended in 0.067 M phosphate buffer (pH 6.5) to the original culture volume. Portions of partially purified salivaricin (titre 16 Au/ml) or of phosphate buffer (control) were then mixed with an equal volume of the washed cell suspension and incubation was continued at 37° C. Survivors were determined at intervals by plating suitable 10-fold dilutions (in cold Todd Hewitt broth) of the test and control mixtures on Columbia agar base and incubating at 37° C. for 24 h. Viable counts were expressed as the total number of CFU per ml.

Lactobactillus casei = experiment: Agar surface assay, inhibitory spectrum; details: 2 tested; 20 ul drops of preparation of titre 16 Ua/ml; 37° C. for 18 h
Description: (§1) Salivaricin activity is titrated using an agar surface assay. Drops (20 ul) of two-fold saline dilutions of the sample are assayed against Microoccus luteus T-18 on Columbia agar base. The reciprocal of the highest dilution to produce a definite zone of inhibition of the growth of the indicator lawn is the titre in arbitrary units per ml (Au/ml) of salivaricin activity.
(§2) By contrast the partially purified preparation of salivaricin A2 of titre 16 when tested using under the same conditions killed less than 10% of strain FF22 cells. Further tests of the inhibitory spectra of partially purified salivaricin A2 and salivaricin B preparations were done by using the agar surface assay described above. Drops (20 ul) of a preparation of titre 16 Ua/ml were spotted onto lawn cultures of the test strains that had been freshly inoculated by swabbing the surface of a Columbia agar base plate with a 1/100 dilution in saline of an 18 h Todd Hewitt broth culture of that strain. Production of a definite zone of inhibited test strain growth upon incubation of these plates at 37° C. for 18 h was taken to indicate sensitivity of that strain to the salivaricin.

Streptococcus sanguis = experiment: Agar surface assay, inhibitory spectrum; details: 6 tested; 20 ul drops of preparation of titre 16 Ua/ml; 37° C. for 18 h
Description: as §1, §2

Streptococcus sobrinus = experiment: Agar surface assay, inhibitory spectrum; details: 4 tested; 20 ul drops of preparation of titre 16 Ua/ml; 37° C. for 18 h
Description: as §1, §2

Streptococcus mutans = experiment: Agar surface assay, inhibitory spectrum; details: 6 tested; 20 ul drops of preparation of titre 16 Ua/ml; 37° C. for 18 h
Description: as §1, §2

Streptococcus pneumoniae = experiment: Agar surface assay, inhibitory spectrum; details: 4 tested; 20 ul drops of preparation of titre 16 Ua/ml; 37° C. for 18 h
Description: as §1, §2

Streptococcus agalactiae = experiment: Agar surface assay, inhibitory spectrum; details: 5 tested; 20 ul drops of preparation of titre 16 Ua/ml; 37° C. for 18 h
Description: as §1, §2

Staphylococcus aureus = experiment: Agar surface assay, inhibitory spectrum; details: 4 tested; 20 ul drops of preparation of titre 16 Ua/ml; 37° C. for 18 h
Description: as §1, §2

[2] = tested on: Corynebacterium diphtheriae; experiment: Agar surface assay, inhibitory spectrum; details: 4 tested; 20 ul drops of preparation of titre 16 Ua/ml; 37° C. for 18 h
Description: as §1, §2

[3] = tested on: Stomatococcus mucilagenosus; experiment: Agar surface assay, inhibitory spectrum; details: 4 tested; 20 ul drops of preparation of titre 16 Ua/ml; 37° C. for 18 h
Description: as §1, §2

Streptococcus pyogenes = experiment: Agar surface assay, inhibitory spectrum; details: 15 tested; 20 ul drops of preparation of titre 16 Ua/ml; 37° C. for 18 h
Description: as §1, §2

[4] = tested on: Streptococcus equisimilis; experiment: Agar surface assay, inhibitory spectrum; details: 5 tested; 20 ul drops of preparation of titre 16 Ua/ml; 37° C. for 18 h
Description: as §1, §2

Branhamella catarrhalis = experiment: Agar surface assay, inhibitory spectrum; details: 1 tested; 20 ul drops of preparation of titre 16 Ua/ml; 37° C. for 18 h
Description: as §1, §2

Escherichia coli = experiment: Agar surface assay, inhibitory spectrum; details: 2 tested; 20 ul drops of preparation of titre 16 Ua/ml; 37° C. for 18 h
Description: as §1, §2

**Q.** With “salivaricin A2: BLIS co-expressed by S. salivarius K12 and K30, related but not identical to salivaricin A; sequence in FIG. 3 (KRGTGWFATITDDCPNSVFVCC; listed as Streptococcus salivarius)” as the substance, how does the CFU killed [1] read?
**A.** less than 10%

**Q.** What about the “Number of strains sensitive” value (Lactobactillus casei) of the same substance?
**A.** 1

**Q.** What about the “Number of strains sensitive” value (Streptococcus sanguis) of the same substance?
**A.** 0

**Q.** And the “Number of strains sensitive” value (Streptococcus sobrinus)?
**A.** 0

**Q.** And the “Number of strains sensitive” value (Streptococcus mutans)?
**A.** 0

**Q.** And the “Number of strains sensitive” value (Streptococcus pneumoniae)?
**A.** 1

**Q.** And the “Number of strains sensitive” value (Streptococcus agalactiae)?
**A.** 0

**Q.** What about the “Number of strains sensitive” value (Staphylococcus aureus) of the same substance?
**A.** 0

**Q.** What about the “Number of strains sensitive” value [2] of the same substance?
**A.** 0

**Q.** What about the “Number of strains sensitive” value [3] of the same substance?
**A.** 0

**Q.** What about the “Number of strains sensitive” value (Streptococcus pyogenes) of the same substance?
**A.** 15

**Q.** And the “Number of strains sensitive” value [4]?
**A.** 5

**Q.** What about the “Number of strains sensitive” value (Branhamella catarrhalis) of the same substance?
**A.** 0

**Q.** And the “Number of strains sensitive” value (Escherichia coli)?
**A.** 0
